Laboratory results published in patent US9675592B2, “Methods and compositions for bacteria infections” (priority 2013, dated 2017).
Values after ≈ are worked out from the molar mass of the structure shown.

Experiments:
strain 923 [1] = assay: Oxacillin MIC of strain 923; assay type: cell-based; settings: Staphylococcus aureus; strain 923, cultured in the 96-well format
[2] = system: vraSR expression (Pvra-lux reporter in strain 923); assay: Validation of test strain: oxacillin induction of luminescence; assay type: cell-based, Staphylococcus aureus; settings: luminescence of 923 Pvra-lux, 2 hours
multiple strains of MRSA = assay: MICs (minimal inhibitory concentrations) vs multiple strains of MRSA; assay type: cell-based, Staphylococcus aureus; settings: no compound
strain 923 [3] = settings: strain 923, CLSI guidelines; cited from earlier work
923 containing pPvra-lux = assay: Oxacillin MIC of test strain in 96-well format; assay type: cell-based, Staphylococcus aureus
[4] = system: vanA containing VRSA strain VRS1; settings: cited from earlier work; for MIC compound (Clo, Pyr, Gos): compound alone
[5] = molecular target: PurC (unrelated protein, control) (Bacillus anthracis, UniProt Q81ZH5); assay type: binding; settings: read-out: KD PurC (control)
PurC (unrelated protein, control), sequence (Q81ZH5 whole entry, looked up): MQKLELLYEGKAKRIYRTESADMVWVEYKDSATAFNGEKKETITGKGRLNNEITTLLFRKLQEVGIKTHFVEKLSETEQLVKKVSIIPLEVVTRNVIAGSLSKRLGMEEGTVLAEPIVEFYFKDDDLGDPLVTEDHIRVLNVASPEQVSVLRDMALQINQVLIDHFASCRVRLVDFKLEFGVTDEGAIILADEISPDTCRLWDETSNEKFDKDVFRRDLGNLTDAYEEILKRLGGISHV

[6] = system: vanA containing VRSA strain VRS2; settings: cited from earlier work; for MIC compound (Clo, Pyr, Gos): compound alone
[7] = molecular target: cytoplasmic domain of VraS (VraS-C) (Staphylococcus aureus, UniProt Q99SZ7); assay: biochemical; assay type: binding
cytoplasmic domain of VraS (VraS-C), sequence (Q99SZ7 70-347): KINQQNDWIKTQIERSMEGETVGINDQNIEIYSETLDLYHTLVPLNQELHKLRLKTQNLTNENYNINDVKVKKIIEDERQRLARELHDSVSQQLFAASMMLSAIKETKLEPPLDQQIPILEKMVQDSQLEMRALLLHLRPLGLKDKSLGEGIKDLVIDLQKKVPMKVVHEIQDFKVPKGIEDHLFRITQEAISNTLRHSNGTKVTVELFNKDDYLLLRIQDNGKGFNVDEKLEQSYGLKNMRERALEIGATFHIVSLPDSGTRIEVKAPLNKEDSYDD

VraR = VraR (Staphylococcus aureus, UniProt Q7A4R9); assay: biochemical; assay type: binding; settings: His-tagged VraR; NB = No Binding
VraR, sequence (Q7A4R9 whole entry): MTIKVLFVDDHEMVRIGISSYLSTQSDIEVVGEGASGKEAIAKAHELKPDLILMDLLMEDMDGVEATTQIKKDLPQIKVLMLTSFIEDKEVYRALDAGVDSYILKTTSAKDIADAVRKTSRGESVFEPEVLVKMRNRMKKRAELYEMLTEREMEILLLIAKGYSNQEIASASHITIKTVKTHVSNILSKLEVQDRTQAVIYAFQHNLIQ

[8] = system: vancomycin intermediate resistant Staphylococcus aureus strain, VISA 2283; settings: cited from earlier work; for potentiation of vancomycin: VISA
[9] = system: hetero VISA isolate, hVISA 2275; settings: cited from earlier work; for MIC compound (Clo, Pyr, Gos): compound alone; for potentiation of vancomycin: hVISA

Cc1onc(-c2ccccc2)c1C(=O)N[C@@H]1C(=O)N2[C@@H]1SC(C)(C)[C@@H]2C(=O)O [oxacillin, reference compound]
MIC (strain 923 [1]): 8 µg/mL
minimum concentration sufficient for maximal vraSR expression [2]: 2 µg/mL
Ox MIC alone (multiple strains of MRSA; isolate 923, SCCmec IV, ST 8): 16 µg/mL
Ox MIC alone (multiple strains of MRSA; isolate 1176, SCCmec II, ST 231): 32 µg/mL
Ox MIC alone (multiple strains of MRSA; isolate 2169, SCCmec IV, ST 72): 16 µg/mL
Ox MIC alone (multiple strains of MRSA; isolate 8004-01, SCCmec III, ST 239): 256 µg/mL
Ox MIC alone (multiple strains of MRSA; isolate 8010-01, SCCmec IV, ST 8): 16 µg/mL
Ox MIC alone (multiple strains of MRSA; isolate 8227-01, SCCmec IV, ST 87): 2 µg/mL
Ox MIC alone (multiple strains of MRSA; isolate 11095, SCCmec II, ST 105): 256 µg/mL
Ox MIC alone (multiple strains of MRSA; isolate 13113, SCCmec II, ST 5): 16 µg/mL
Ox MIC alone (multiple strains of MRSA; isolate 13354, SCCmec IV, ST 5): 8 µg/mL
Ox MIC alone (multiple strains of MRSA; isolate 14315, SCCmec IV, ST 1): 32 µg/mL
Ox MIC alone (multiple strains of MRSA; isolate Q2461, SCCmec VT, ST 59): 8 µg/mL
24-h oxacillin MIC (strain 923 [3]): 16 to 32 µg/mL
MIC of oxacillin (923 containing pPvra-lux): 5 µg/mL

Cc1cc(/C=C/c2ccc3cc(N(C)C)ccc3[n+]2C)c(C)n1-c1ccccc1 [Pyr, Pyrvinium]
fold decrease Van MIC [4]: 64 fold
potentiation of vancomycin [4]: fully potentiated
MIC compound (Clo, Pyr, Gos) [4]: 2.24 µg/mL
Kd [5]: > 100 µM
Synergy category [6]: synergistic (An FICi of ≦0.5 defines a synergistic interaction)
potentiation of vancomycin [6]: fully potentiated
MIC compound (Clo, Pyr, Gos) [6]: 1.12 µg/mL
binding to VraS-C ([7]; SPR): binds
RUmax VraS ([7]; new run with His-tagged VraS): 46.5 ± 2.9
Kd ([7]; new run with His-tagged VraS, NB = No Binding, read-out: KD VraS): 21.3 ± 3.6 µM
Kd (VraR): > 100 µM
Synergy category ([8]; VISA 2283): non syn
potentiation of vancomycin [8]: not
MIC (in combination) Clo+, Pyr+, Gos+ ([9]; MIC of the compound in combination with the indicated Van concentration, hVISA 2275): 0.56 µg/mL
MIC compound (Clo, Pyr, Gos) ([9]; hVISA 2275): 16 µg/mL
FICi V + compound ([9]; hVISA 2275): 0.54
Synergy category ([9]; hVISA 2275): partial (partially potentiated vancomycin (FIC i>0.5 and <1.0))
fold decrease Van MIC ([9]; hVISA 2275): 2 fold
potentiation of vancomycin [9]: partially potentiated
Van FIC ([9]; in combination with compound, hVISA 2275): 0.50
Clo FIC, Pyr FIC, Gos FIC ([9]; in combination with vancomycin, hVISA 2275): 0.04
MIC (in combination) Van+ ([9]; vancomycin MIC when used in combination with compound, hVISA 2275): 2 µg/mL

CCN(CC)CCOc1ccc(C(=C(Cl)c2ccccc2)c2ccccc2)cc1 [Clo, Clomiphene]
FICi V + compound [4]: 0.75
Synergy category [4]: partial (partially potentiated vancomycin (FIC i>0.5 and <1.0))
potentiation of vancomycin [4]: partially potentiated
MIC compound (Clo, Pyr, Gos) [4]: 12 µg/mL (≈ 29.6 µM)
potentiation of vancomycin [6]: fully potentiated
MIC compound (Clo, Pyr, Gos) [6]: 12 µg/mL (≈ 29.6 µM)
MIC (in combination) Clo+, Pyr+, Gos+ ([8]; MIC of the compound in combination with the indicated Van concentration, VISA 2283): 3 µg/mL
FICi V + compound ([8]; VISA 2283): 0.75
Synergy category ([8]; VISA 2283): partial (partially potentiated vancomycin (FIC i>0.5 and <1.0))
potentiation of vancomycin [8]: partially potentiated
MIC compound (Clo, Pyr, Gos) ([8]; compound alone, VISA 2283): 12 µg/mL (≈ 29.6 µM)
Van FIC ([8]; in combination with compound, VISA 2283): 0.5
Clo FIC, Pyr FIC, Gos FIC ([8]; in combination with vancomycin, VISA 2283): 0.25
MIC (in combination) Van+ ([8]; vancomycin MIC when used in combination with compound, VISA 2283): 4 µg/mL
MIC compound (Clo, Pyr, Gos) ([9]; hVISA 2275): 12 µg/mL (≈ 29.6 µM)
Synergy category ([9]; hVISA 2275): partial (partially potentiated vancomycin (FIC i>0.5 and <1.0))
potentiation of vancomycin [9]: partially potentiated
